# From patent US20120214824A1, “PROTEOSTASIS REGULATORS” (priority 2010, published 2012)
# How the values were obtained:
# GCLM = assay: Multigene assay (QuantiGene Plex 2.0), mouse MEF cell line; type: cell-based; conditions: 6 hours post-compound treatment
# Experimental: (§1) This assay used the QuantiGene Plex 2.0 Reagent System from Affymetrix. This assay combines the use of bDNA (branch DNA) and xMAP magnetic capture beads from Luminex Technologies to quantitatively and simultaneously detect multiple mRNA transcripts per well. The overall procedure was performed according to the QuantiGene Plex 2.0 Reagent System instruction manual from Affymetrix.
# (§2) Cells were seeded at a density of 12,000 cells/well in 96-well plates with an overnight incubation at 37° C., 5% CO2. Cells were treated with serially diluted compounds in a 7-point dose dependent manner. Cell lysis with 50% [v/v] Panomics Lysis Mixture (Lysis Mixture+10 μl/ml 25 Proteinase K) was performed 6 hours post-compound treatment. Lysed cells were heated at 50° C. to ensure appropriate lysing and the plates were then frozen at −80° C. Cell lysates, thawed at room temperature on the day of the assay, were pooled with mouse 8-gene multiplex probe sets and with 8 different sets of magnetic capture beads (Luminex Technology, Austin, Tex.) in a 100 μl/well volume. Biomek FX was used at every liquid transfer step. The eight plates containing lysate-probe-bead mixtures were incubated at 54° C.±1° C. on a shaking platform for an overnight incubation in the dark (18-20 hours). The following day the hybridization plates were compressed by transferring the hybridized lysates into a single magnetic capture plate. The plate was kept on a magnet to hold the beads and then washed with Panomics Wash Buffer 2.0 on a BioTek ELx405 select plate washer to remove any unbound sample. This step was followed by serial hybridizations and washings of the bDNA pre-amplifier (1 hour, 50° C.), bDNA amplifier (1 hour, 50° C.), label probe (1 hour, 50° C.), and streptavidin-phycoerythrin (SAPE, 30 minutes, room temperature). (Zhang, A. et al. Small interfering RNA and gene expression analysis using a multiplex branched DNA assay without RNA purification. J Biomol Screen 10, 549-56 (2005)). The plate was then washed with SAPE wash buffer to remove unbound SAPE and each well was analyzed with the Luminex FlexMap3D (Luminex, Austin, Tex.). SAPE fluorescence measured from each bead was proportional to the number of mRNA transcripts captured by the beads (Zheng, Z., Luo, Y. & McMaster, G. K. Sensitive and quantitative measurement of gene expression directly from a small amount of whole blood. Clin Chem 52, 1294-302 (2006)). Fold changes in gene expression were obtained for each gene per well by normalizing the raw data first to the DMSO control and then to a housekeeping gene (TBP-TATA binding protein or Tub1-alpha-tubulin).
# HSPA1a = assay: as above; type: cell-based; conditions: 6 hours post-compound treatment
# Experimental: as §1, §2
# HMOX = assay: as above; type: cell-based; conditions: 6 hours post-compound treatment
# Experimental: as §1, §2
# BCL2 = assay: as above; type: cell-based; conditions: 6 hours post-compound treatment
# Experimental: as §1, §2
# TUB1 = assay: as above; type: cell-based; conditions: 6 hours post-compound treatment
# Experimental: as §1, §2
# DDIT3 = assay: as above; type: cell-based; conditions: 6 hours post-compound treatment
# Experimental: as §1, §2
# HspA5 = assay: as above; type: cell-based; conditions: 6 hours post-compound treatment
# Experimental: as §1, §2
# firefly luciferase = assay: Luciferase folding assay (Lucif.); type: cell-based, human; conditions: HeLa-luciferase cells
# Text: Firefly luciferase is a commonly used bioluminescent reporter. This monomeric enzyme of 61 kDa catalyzes a two-step oxidation reaction to yield light, usually in the green to yellow region, typically 550-570 nm. The first step of this reaction is activation of the luciferyl carboxylate by ATP to yield a reactive mixed anhydride. In the second step, the activated intermediate reacts with oxygen to create a transient dioxetane that breaks down to the oxidized products, oxyluciferin and CO2. Upon mixing with substrates, firefly luciferase produces an initial burst of light that decays over about 15 seconds to a low level of sustained luminescence. This kinetic profile reflects the slow release of the enzymatic product, thus limiting catalytic turnover after the initial reaction.
# This mammalian cell based assay that used firefly luciferase as a sensor was used to screen for compounds that may modulate the cellular folding environment.
# HeLa luciferase cell lines: Frozen bullets containing the cells were thawed briefly at 37° C. then placed into a T-150 flask containing 30-35 ml DMEM medium+Penicillin/Strep (1% final+10% FBS (final)+Geneticin @ 200-500 ug/ml. Cell cultures were maintained at 37° C. with 5% CO2 and water in the bottom of the incubator to keep cells healthy. Upon expanding cell line, luciferase measurements were taken to make sure that activity levels were between 2000-5000 (RLU) when plated at 15K/well in a 96-well format (Bright-Glo Promega) before compound treatment.
# Compound treatment of HeLa-luciferase cells: HeLa-luciferase WT cells were plated in a 96-well format at 15K/well the day prior to performing compound treatment and/or luciferase assay. […] Final volume used per well was 90 uL. Flat bottom, white polystyrene plates were used for plating the cells.
# For compound treatment, stocks of compounds were made up at 10 mM concentration in DMSO. Stocks compounds were diluted by 100× fold in the same media used for culturing the cells—this leads to a 0.1 mM (or 100 uM) concentration. After diluting the compound in media, 10 uL of the 100 uM solution was placed into each well of cells (90 uL); making the final concentration of the compound 10 uM. If serial dilutions of compounds were tested, serial dilutions of compounds were first made in DMSO accordingly, and further diluted in the media, prior to adding to cells. This procedure allowed for constant final levels of DMSO concentrations, regardless of initial compound concentration.
# Performing luciferase activity assay: Bright-Glo Luciferase Assay Reagent (Promega cat #: E2610, E2620, E2650) was thawed out at RT in a water bath. Alternatively, Bright-Glo Luciferase assay buffer (prior to mixing with substrate) was stored overnight at RT, prior to using.
# Following compound treatment, plates were removed from 37° C. and allowed to acclimate to RT for 5-10 min. Bright-Glo reagent was added to each cell-containing well in a 1:1 ratio (e.g., 100 uL of Bright Glo for each 100 uL cells).
# Plates were placed on a plate shaker for 5 min, removing any air bubbles on the surface (which may interfere with proper reads), and then read on an EnVision 2104 Multilabel reader, Emission filter Luminescence 700, barcode 212, WL 400-700 nm.
# Data for representative compounds in this assay are shown under the heading “Lucif.”
compound,measurement,setting,value
CC1=C(C#N)C(c2ccccc2OC(C)C)C2=C(CC(c3ccccc3)CC2=O)N1 (stereo not drawn) [drawing 27/Me/CN/o-OCHMe2/H],GCLM gene induction,GCLM; Table 2a,− (− Indicates less than 2 fold induction)
same,HSPA1a gene induction,HSPA1a; Table 2b,− (− Indicates less than 2 fold induction)
same,HMOX gene induction,HMOX; Table 2b,− (− Indicates less than 2 fold induction)
same,BCL2 gene induction,BCL2; Table 2b,− (− Indicates less than 2 fold induction)
same,TUB1 gene induction,TUB1; Table 2a,− (− Indicates less than 2 fold induction)
same,DDIT3 gene induction,DDIT3; Table 2a,− (− Indicates less than 2 fold induction)
same,HspA5 gene induction,HspA5; Table 2b,− (− Indicates less than 2 fold induction)
same,Lucif (luciferase activity induction),firefly luciferase; Table 2a,+ (+ indicates a induction of greater than 2 fold)
CC1=C(C#N)C(c2ccc(F)cc2)C2=C(CC(c3ccccc3)CC2=O)N1 (stereo not drawn) [drawing 27/Me/CN/p-F/H],GCLM gene induction,GCLM; Table 2a,− (− Indicates less than 2 fold induction)
same,HSPA1a gene induction,HSPA1a; Table 2b,− (− Indicates less than 2 fold induction)
same,HMOX gene induction,HMOX; Table 2b,+ (+ indicates a induction of greater than 2 fold)
same,BCL2 gene induction,BCL2; Table 2b,− (− Indicates less than 2 fold induction)
same,TUB1 gene induction,TUB1; Table 2a,− (− Indicates less than 2 fold induction)
same,DDIT3 gene induction,DDIT3; Table 2a,+ (+ indicates a induction of greater than 2 fold)
same,HspA5 gene induction,HspA5; Table 2b,− (− Indicates less than 2 fold induction)
same,Lucif (luciferase activity induction),firefly luciferase; Table 2a,+ (+ indicates a induction of greater than 2 fold)
CC1=C(C(=O)OCC(C)C)C(c2ccc(F)cc2)C2=C(CC(c3ccccc3)CC2=O)N1 (stereo not drawn) [drawing 27/Me/COOCH2CHMe2/p-F/H],GCLM gene induction,GCLM; Table 2a,− (− Indicates less than 2 fold induction)
same,HSPA1a gene induction,HSPA1a; Table 2b,− (− Indicates less than 2 fold induction)
same,HMOX gene induction,HMOX; Table 2b,− (− Indicates less than 2 fold induction)
same,BCL2 gene induction,BCL2; Table 2b,− (− Indicates less than 2 fold induction)
same,TUB1 gene induction,TUB1; Table 2a,− (− Indicates less than 2 fold induction)
same,DDIT3 gene induction,DDIT3; Table 2a,− (− Indicates less than 2 fold induction)
same,HspA5 gene induction,HspA5; Table 2b,− (− Indicates less than 2 fold induction)
same,Lucif (luciferase activity induction),firefly luciferase; Table 2a,+ (+ indicates a induction of greater than 2 fold)
CC(C)Oc1ccccc1C1C(C#N)=C(N)NC2=C1C(=O)CC(c1ccccc1)C2 (stereo not drawn) [drawing 27/NH2/CN/o-OCHMe2/H],GCLM gene induction,GCLM; Table 2a,− (− Indicates less than 2 fold induction)
same,HSPA1a gene induction,HSPA1a; Table 2b,+ (+ indicates a induction of greater than 2 fold)
same,HMOX gene induction,HMOX; Table 2b,+ (+ indicates a induction of greater than 2 fold)
same,BCL2 gene induction,BCL2; Table 2b,− (− Indicates less than 2 fold induction)
same,TUB1 gene induction,TUB1; Table 2a,− (− Indicates less than 2 fold induction)
same,DDIT3 gene induction,DDIT3; Table 2a,+ (+ indicates a induction of greater than 2 fold)
same,HspA5 gene induction,HspA5; Table 2b,− (− Indicates less than 2 fold induction)
same,Lucif (luciferase activity induction),firefly luciferase; Table 2a,+ (+ indicates a induction of greater than 2 fold)
N#CC1=C(N)NC2=C(C(=O)CC(c3ccccc3)C2)C1c1ccc(F)cc1 (stereo not drawn) [drawing 27/NH2/CN/p-F/H],GCLM gene induction,GCLM; Table 2a,− (− Indicates less than 2 fold induction)
same,HSPA1a gene induction,HSPA1a; Table 2b,+ (+ indicates a induction of greater than 2 fold)
same,HMOX gene induction,HMOX; Table 2b,− (− Indicates less than 2 fold induction)
same,BCL2 gene induction,BCL2; Table 2b,− (− Indicates less than 2 fold induction)
same,TUB1 gene induction,TUB1; Table 2a,− (− Indicates less than 2 fold induction)
same,DDIT3 gene induction,DDIT3; Table 2a,+ (+ indicates a induction of greater than 2 fold)
same,HspA5 gene induction,HspA5; Table 2b,− (− Indicates less than 2 fold induction)
same,Lucif (luciferase activity induction),firefly luciferase; Table 2a,+ (+ indicates a induction of greater than 2 fold)
CCCc1n[nH]c2c1C(c1ccccc1Br)C(C#N)=C(N)O2 (stereo not drawn) [drawing 28/(CH2)2Me/2-Br],GCLM gene induction,GCLM; Table 3a,+ (+ indicates a induction of greater than 2 fold)
same,HSPA1a gene induction,HSPA1a; Table 3b,− (− Indicates less than 2 fold induction)
same,HMOX gene induction,HMOX; Table 3b,+ (+ indicates a induction of greater than 2 fold)
same,BCL2 gene induction,BCL2; Table 3b,− (− Indicates less than 2 fold induction)
same,TUB1 gene induction,TUB1; Table 3a,− (− Indicates less than 2 fold induction)
same,DDIT3 gene induction,DDIT3; Table 3a,− (− Indicates less than 2 fold induction)
same,HspA5 gene induction,HspA5; Table 3b,− (− Indicates less than 2 fold induction)
same,Lucif (luciferase activity induction),firefly luciferase; Table 3a,+ (+ indicates a induction of greater than 2 fold)
CCCc1n[nH]c2c1C(c1ccccc1C(F)(F)F)C(C#N)=C(N)O2 (stereo not drawn) [drawing 28/(CH2)2Me/2-CF3 #1],GCLM gene induction,GCLM; Table 3a,+ (+ indicates a induction of greater than 2 fold)
same,HSPA1a gene induction,HSPA1a; Table 3b,− (− Indicates less than 2 fold induction)
same,HMOX gene induction,HMOX; Table 3b,+ (+ indicates a induction of greater than 2 fold)
same,BCL2 gene induction,BCL2; Table 3b,− (− Indicates less than 2 fold induction)
same,TUB1 gene induction,TUB1; Table 3a,− (− Indicates less than 2 fold induction)
same,DDIT3 gene induction,DDIT3; Table 3a,− (− Indicates less than 2 fold induction)
same,HspA5 gene induction,HspA5; Table 3b,− (− Indicates less than 2 fold induction)
same,Lucif (luciferase activity induction),firefly luciferase; Table 3a,+ (+ indicates a induction of greater than 2 fold)
CCCc1n[nH]c2c1C(c1ccccc1C(F)(F)F)C(C#N)=C(N)O2 (stereo not drawn) [drawing 28/(CH2)2Me/2-CF3 #2],GCLM gene induction,GCLM; Table 3a,+ (+ indicates a induction of greater than 2 fold)
same,HSPA1a gene induction,HSPA1a; Table 3b,− (− Indicates less than 2 fold induction)
same,HMOX gene induction,HMOX; Table 3b,+ (+ indicates a induction of greater than 2 fold)
same,BCL2 gene induction,BCL2; Table 3b,− (− Indicates less than 2 fold induction)
same,TUB1 gene induction,TUB1; Table 3a,− (− Indicates less than 2 fold induction)
same,DDIT3 gene induction,DDIT3; Table 3a,− (− Indicates less than 2 fold induction)
same,HspA5 gene induction,HspA5; Table 3b,− (− Indicates less than 2 fold induction)
same,Lucif (luciferase activity induction),firefly luciferase; Table 3a,+ (+ indicates a induction of greater than 2 fold)
CCCc1n[nH]c2c1C(c1cc(Br)ccc1O)C(C#N)=C(N)O2 (stereo not drawn) [drawing 28/(CH2)2Me/2-OH-5-Br],GCLM gene induction,GCLM; Table 3a,+ (+ indicates a induction of greater than 2 fold)
same,HSPA1a gene induction,HSPA1a; Table 3b,− (− Indicates less than 2 fold induction)
same,HMOX gene induction,HMOX; Table 3b,+ (+ indicates a induction of greater than 2 fold)
same,BCL2 gene induction,BCL2; Table 3b,− (− Indicates less than 2 fold induction)
same,TUB1 gene induction,TUB1; Table 3a,− (− Indicates less than 2 fold induction)
same,DDIT3 gene induction,DDIT3; Table 3a,− (− Indicates less than 2 fold induction)
same,HspA5 gene induction,HspA5; Table 3b,− (− Indicates less than 2 fold induction)
same,Lucif (luciferase activity induction),firefly luciferase; Table 3a,+ (+ indicates a induction of greater than 2 fold)
